The record followed here is patent US11666608B2 (priority 2020, dated 2023).

The assay deals with neutrophils isolated from peripheral blood. The assay is described as follows: Neutrophil activation by E. coli EVs, neutrophil elastase secretion (ELISA). The following applies: human neutrophils treated with E. coli EVs and test substance 24 hours, FIG. 8. In kind it is cell-based. The protocol:
Specifically, 10 mL of blood was collected in a tube containing an ACD solution, the blood was carefully added over 20 mL of Lymphoprep and centrifuged. After centrifugation, a red blood layer was collected and mixed with 12 mL of dextran, followed by standing at room temperature for 45 minutes. After layer separation, 40 mL of 1×HBSS was added to the supernatant and centrifuged again, and red blood cells were removed with autoclaved Millipore water, and then neutrophils were isolated using a neutrophil isolation kit (MACS). […] As a positive control drug, dexamethasone (Dex) was treated.
(In general: An ELISA detects its analyte on a solid surface through an enzyme-linked reagent.)

As to `C[C@@H]1C[C@H]2[C@@H]3CCC4=CC(=O)C=C[C@]4(C)[C@@]3(F)[C@@H](O)C[C@]2(C)[C@@]1(O)C(=O)CO` [dexamethasone], the “secretion of NE (neutrophil elastase), neutrophil activation indicator” value was “did not inhibit”.
